This note sets out measurements from patent US8168656B2, “Indoleacetic acid and indenacetic acid derivatives as therapeutic agents with reduced gastrointestinal toxicity” (Vanderbilt University, priority 2009, dated 2012).

Each structure is given as a SMILES string. Numbering of substitutions follows the chain as printed.

What all share (assay): Steady-state quenching of COX intrinsic fluorescence (apo-protein)
Common to all, as to assay type: binding, murine

Test [1] has as its target T1, mCOX-2^V349A (Mus musculus, UniProt Q05769, V335A).
T1 construct: made in house; host or cells: Sf9 insect cells (baculovirus, pVL1393)
T1 sequence (Q05769 18-604 V335A): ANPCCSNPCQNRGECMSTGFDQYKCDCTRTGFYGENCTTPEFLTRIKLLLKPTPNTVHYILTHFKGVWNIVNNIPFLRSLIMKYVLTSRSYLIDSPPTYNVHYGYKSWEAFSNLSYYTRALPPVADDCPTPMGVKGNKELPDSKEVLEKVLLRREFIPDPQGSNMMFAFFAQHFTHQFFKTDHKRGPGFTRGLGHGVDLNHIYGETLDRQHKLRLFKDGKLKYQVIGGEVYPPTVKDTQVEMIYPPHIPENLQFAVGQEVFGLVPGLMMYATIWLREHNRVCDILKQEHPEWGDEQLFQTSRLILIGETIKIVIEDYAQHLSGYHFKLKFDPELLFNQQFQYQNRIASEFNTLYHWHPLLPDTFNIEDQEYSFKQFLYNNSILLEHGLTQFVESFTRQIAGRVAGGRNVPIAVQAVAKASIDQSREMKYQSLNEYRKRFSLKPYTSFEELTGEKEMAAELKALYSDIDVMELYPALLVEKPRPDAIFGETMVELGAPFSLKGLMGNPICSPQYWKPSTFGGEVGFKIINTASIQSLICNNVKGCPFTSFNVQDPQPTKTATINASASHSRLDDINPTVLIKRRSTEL
The protocol: (§1) Steady-state measurements were performed at 37° C. in a 3.5 ml fluorescence cuvette with continuous stirring. […] Data were collected over 240 or 360 seconds with 2-second integration times. The reversibility of quenching was analyzed in the same manner, with subsequent addition of 50 μM AA as competitor. The ligands were dissolved in DMSO before further dilution into buffer. The organic component in the buffer was below 0.4%.
(§2) This assay provided a method to directly monitor the binding of INDO and DM-INDO to COXs. Various concentrations of INDO and DM-INDO were added to apo-proteins and the rate of fluorescence decrease was monitored over time. After the mixture reached equilibrium, 50 μM of AA was added as competitor to monitor the reversibility of binding. The kinetic data for quenching were analyzed in the same manner as those for inhibition. For clarity, the equilibrium constant for the first step of fluorescence quenching is referred to as Kd, and k2 and k−2 from the second step of quenching are represented by k′2 and k′−2, respectively.

The target of test [2] is T2, mCOX-2^V349I (Mus musculus, UniProt Q05769, V335I).
T2 construct: made in house; host or cells: Sf9 insect cells (baculovirus, pVL1393)
T2 sequence (Q05769 18-604 V335I): T1 sequence (Q05769 18-604 V335A) with A318I
The protocol: as §1, §2

Test [3] addresses T3, mCOX-2^V349L (Mus musculus, UniProt Q05769, V335L).
T3 construct: made in house; host or cells: Sf9 insect cells (baculovirus, pVL1393)
T3 sequence (Q05769 18-604 V335L): T1 sequence (Q05769 18-604 V335A) with A318L
The procedure: as §1, §2

The mark [4] stands for this setting: fluorescence increase from competition with 50 μM AA.

Usually Kd stands for the concentration at which binding is half-saturated. Consider `COc1ccc2c(c1)c(CC(=O)O)cn2C(=O)c1ccc(Cl)cc1` [DM-INDO, 2-Des-methylindomethacin], for which the “k′−2^b” value in test [1] (setting [4]) is 0.046 ± 0.002 s⁻¹; in test [2] (setting [4]), 0.005 ± 0.001 s⁻¹; in test [3] (setting [4]), 0.006 ± 0.001 s⁻¹. Moreover, the Kd in test [1] (fluorescence quenching) worked out at 1.4 ± 0.3 µM; in test [2] (fluorescence quenching) it was 12 ± 5 µM; in test [3] (fluorescence quenching) it was 34 ± 19 µM. The “k′2” value in test [1] (fluorescence quenching) stood at 0.17 ± 0.04 s⁻¹; in test [2] (fluorescence quenching), 0.09 ± 0.01 s⁻¹; in test [3] (fluorescence quenching) it was 0.05 ± 0.01 s⁻¹. For the same molecule, the “k′−2” value in test [1] (fluorescence quenching (decay)) came out at 0.045 ± 0.008 s⁻¹; in test [2] (fluorescence quenching (decay)), 0.003 ± 0.002 s⁻¹; in test [3] (fluorescence quenching (decay)) it was 0.003 ± 0.002 s⁻¹.
